Results on 2 molecules are retold here after patent US5840690A, “Regulation of cell proliferation and differentation using peptides” (priority 1995, dated 1998).

The subject of assay [1] is wounds made through the skin with a 6 mm dermal biopsy punch. In words: In vivo skin punch assay. Details: species or system Sprague-Dawley rats. To be noted: rats, 2.0 μg topically in normal saline, immediately after biopsy and each day for 3 days, FIG. 8. The procedure:
Male Sprague-Dawley rats were anesthetized by intraperitoneal injection of sodium pentobarbital, their dorsal skin shaved, and wounds made through the skin with a 6 mm dermal biopsy punch. Immediately after the biopsy, and each subsequent day for 3 days, groups of rats received topically 2.0 μg of human PTH (1-34) in normal saline or human PTH (7-34) in normal saline; a control group received normal saline without peptide. Four rats from each group were killed by asphyxiation in a chamber of carbon dioxide, and the extent of wound healing was evaluated as follows. Wounds were photographed with the wound surface perpendicular to the axis of the lens. After development of the film, wound images were projected on to paper at a fixed distance, traced with a pencil, and cut out with sharp scissors. The relative sizes of the wounds were assessed by weighing the cut-out paper tracings. Percent healing was calculated from the average decrease in wound area for each group.

In assay [2] the test system is hair obtained from human subjects. Nature of the assay: In vitro hair growth assay. It counts as cell-based. The source says: Candidate peptides may be screened for their ability to stimulate hair growth as follows. […] Hair is sampled from 4 sites of the scalp (frontal, occipital, temporal, and nuchal) and the following body areas: beard, axilla, pubic, chest, forearm, and leg, using the method described by van Scott et al. (J. Invest. Derm. 29: 197, 1957). Immediately after plucking, the hairs are placed in chilled Krebs-Ringer phosphate buffer, pH 7.4. Growing (anagen) and resting (telogen) hairs are differentiated either by gross examination or under low microscopic magnification. Generally, 2 to 4 anagen hairs and 10 to 30 telogen hairs are incubated in duplicate, in 2 ml. centrifuge tubes, in a total volume of 1 ml of incubation mixture consisting of Krebs-Ringer phosphate buffer, pH 7.4, glucose (9 mM), and candidate peptide; control incubation mixture lacks peptide. Samples are incubated with shaking at 37° C. in an air atmosphere. […]
DNA content is determined by the method of Kissane and Robins (J. Biol. Chem. 233: 184, 1958) as modified by Santoianni and Ayala (J. Invest. Derm. 45: 99, 1965). […] Fluorescence is asssayed on an Aminco-Bowman Spectrofluorometer with the excitation wavelength set at 396 nm and the emission wavelength at […]. […] Routinely, standards containing 0.1, 0.4, 0.8, 1.2, 1.6, and 3.2 μg of DNA, and a blank are read with the samples.

Assay [3] has as its system cultured human keratinocytes. In words: Keratinocyte culture: counts of total cells, basal cells and cornified envelopes. It counts as cell-based. The procedure: Keratinocytes were grown in culture as follows. NIH 3T3 cells were plated at 0.5×10^5 cells per 35-mm tissue-culture dish, and two days later were lethally irradiated with a cobalt-60 source (5000 rads). Keratinocytes were obtained from neonatal foreskin after overnight trypsinization at 4° C. and treatment with 0.02% EDTA. Keratinocytes were plated in 2 ml of serum-free medium per dish on the lethally irradiated 3T3 cells. Each experiment was performed on primary or secondary keratinocyte cultures obtained from different skin samples.
In addition, 1,25-(OH)2 D3 was tested, alone and in combination with PTH (7-34), and PTH (1-34) and PTH (7-34) were tested together.
Beginning at one week in culture, groups of triplicate plates of keratinocytes were incubated with the aforementioned compounds or vehicle alone. After one week of dosing, the medium was removed from each culture and centrifuged, and the pellet was resuspended for the counting of the desquamated floater cells. A hemacytometer was used to count the different cell types under a phase-contrast microscope. The attached cells were then trypsinized for 30-40 min with 0.1 EDTA and 0.1% trypsin and then neutralized with medium. The keratinocytes were pelleted and resuspended in a known volume of medium. Duplicate aliquots were taken for counting the basal (small, rounded) and squamous (larger, irregular-shaped, flattened) cells. The remaining cells were pelleted and treated with 10 mM Tris-HCl (pH 7.4) with 1% beta-mercaptoethanol and 1% sodium dodecyl sulfate (SDS) at room temperature for 10 min. Only cells with cornified envelopes were present after this treatment.
Each culture was thus evaluated for its total cell content, number of basal cells, and cornified envelopes, as described above.

Assay [4] concerns tumor cells (for example, HL-60, U937, and M-1). To be noted: tumor cells that possess a receptor for 1,25(OH)2 D3; cited from earlier work.
Assay [5] concerns cultured human fibroblasts. The conditions noted are these: cited from earlier work.
Assay [6] relates to cultured human keratinocytes. To be noted: cited from earlier work.
Assay [7] deals with psoriasis. To be noted: provided either orally or topically; cited from earlier work.

Consider “human PTH (7-34): human PTH (7-34), applied topically in normal saline in the skin punch assay; stimulates hair growth in vitro (LMHNLGKHLNSMERVEWLRKKLQDVHNF; Parathyroid hormone; UniProt P01270 38-65, looked up, fragment)”, for which, in assay [1], the “wound healing (percent healing from decrease in wound area)” value is listed as “enhance wound healing”. Besides, the “hair growth in vitro” value in assay [2] is reported as “stimulates hair growth”.

Turning to `C=C1/C(=C\C=C2/CCC[C@]3(C)[C@@H]([C@H](C)CCCC(C)(C)O)CC[C@@H]23)C[C@@H](O)C[C@@H]1O` [1,25(OH)2 D3, 1,25-dihydroxyvitamin D3], the “total number of cells and number of basal cells” value in assay [3] (1,25(OH)2 D3 alone, one week of dosing, FIGS. 2-5) was “decreased in a dose-dependent manner”. Further, the “total number of cornified envelopes, percent of control” value in assay [3] (compound alone, FIGS. 6 and 7) was “increased, in a dose-dependent manner”. In addition, in assay [4], the “differentiation of tumor cells” value is recorded as “induces them to differentiate” and the “proliferation of tumor cells” value is listed as “inhibits their proliferation”. Besides, the “proliferation of cultured human fibroblasts” value in assay [5] is on record as “inhibits the proliferation”. Also, in assay [6], the “proliferation of cultured human keratinocytes” value is recorded as “inhibits the proliferation” and the “terminal differentiation of keratinocytes” value is on record as “induces keratinocytes to terminally differentiate”. In assay [7], the “value in the treatment of psoriasis” value was “of value in the treatment of psoriasis”.
